Data reported in US3946018A, “1,4-Dihydro-3 (2H)-isoquinolinone derivatives” (priority 1973, dated 1976).
Counter-ions that a name gives are not always drawn. Like-named read-outs stand apart in the source and are kept apart here.

Tests used:
[1] = system: white mice; assay: Maximum Electroshock Seizure Test (electroshock-inhibiting effect); format: in vivo, white mice of both sexes; conditions: for Protective Index: ED50 rotarod divided by ED50 ES; for ED50: Mus musculus, read-out: ED50 ES
Procedure: (§1) The pharmacological properties of the new compounds were tested on white mice of both sexes, weighing 16 to 24 g. The new compounds were administered orally through a metal stomach tube, in the form of a 5 per cent suspension in a medium containing Tween 80 as suspending agent.
The electroshock-inhibiting effect of the compounds was examined on groups each consisting of 10, individually caged mice. The anticonvulsive activity was tested by the "Maximum Electroshock Seizure Test" of Swinyard, et al. (Epilepsia 10, 107 /1969/), and the inhibition of the tonic extension of the hind limbs was evaluated. […] The results were evaluated according to the method of Lichtfield and Wilcoxon. The electroshock was provoked using corneal electrodes, under the following parameters: 50 Hz, 0.3 sec. 3 msec; the current intensity varied between 28 and 34 mA (a current intensity was maintained that was sufficient to provoke spasm in each of the 10 animals).
The activities of the compounds with protecting effect against electroshock were compared by the so-called protective index, which was calculated by dividing the individual ED5o rotarod values with the corresponding ED5o ES values. The greater this ratio, the more remote the dosis protecting against electroshock is from the dosis causing muscle relaxation.
(§2) For comparison various known and widely used pharmacons, namely phenobarbital (5-ethyl-5-phenylbarbituric acid), phenytoin (5,5-diphenylhydantoine) and trimethadion (3,5,5-trimethyl-2,4-oxazolidine-dione) were also tested under the same conditions.

[2] = in vivo; conditions: mouse, po
Procedure: as §1
The paralyzing effect of the compounds was tested on groups each consisting of 8 mice, by the rotarod test. The ED5o rotarod value corresponds to the dosis, which, one hour after the administration, causes 50 per cent of the test animals to fall down from the rotarod within 3 minutes. The neurotoxic activity was evaluated according to the method of Lichtfield and Wilcoxon.
as §2

[3] = acute oral toxicity (LD50) in mice; conditions: mouse, in vivo
Procedure: (§3) The LD5o values of the compounds were determined on groups each consisting of 8 mice. The results were evaluated according to the method of Lichtfield and Wilcoxon (J. Pharmacol. exp. Therap. 96, 99 / 1949/).

[4] = system: white mice; assay: inhibition of pentamethylenetetrazole-provoked spasm; format: in vivo, white mice of both sexes; conditions: Mus musculus, read-out: ED50 pentamethylenetetrazole
Procedure: The inhibiting effect on pentamethylenetetrazoleprovoked spasm was tested on groups each consisting of 12 individually caged, randomized mice, by the method of Orloff (Proc. Soc. Exp. Biol. Med. N.Y., 70, 254 /1949/). The pentamethylenetetrazole spasm threshold was determined by the slow (0.05 ml./10 sec.) intravenous administration of a 0.5 % pentamethylenetetrazole solution, and the influence of the compounds on the spasm threshold was examined. In every case, the tonic extension of the hind limbs was regarded as spasm.

[5] = system: white mice; assay: acute oral toxicity (LD50) in mice; conditions: mouse, in vivo, po
Procedure: as §3

[6] = oral, mice, 3 h., inhibition of tonic extension of the hind limbs, protection of 50 % of animals
[7] = oral, mice, 3 h., 0.5 % pentamethylenetetrazole slow i.v., tonic extension of the hind limbs regarded as spasm

Structure (SMILES) | Protective Index [1] | ED50 [1, 6] | TD50 [2] | LD50 ([3]; oral, mice, read-out: LD50) | ED50 [4, 7] | ED50 ([1]; po, 3 h) | TD50 ([2]; in vivo) | ED50 ([4]; po, 3 h) | LD50 ([3]; po) | LD50 [5]
CN1C(=O)OC(C)(C)C1=O [3,5,5-trimethyl-2,4-oxazolidine-dione, reference compound] | 0.77 | 440 mg/kg | 340 mg/kg | 1750 mg/kg | 62 mg/kg |  |  |  |  | 
O=C1NC(=O)C(c2ccccc2)(c2ccccc2)N1 [5,5-diphenyl-hidantoine, 5,5-diphenylhydantoine, reference compound] | 1.0 | 10 mg/kg | 10 mg/kg | 300 mg/kg | 25 mg/kg |  |  |  |  | 
CCC1(c2ccccc2)C(=O)NC(=O)NC1=O [5-ethyl-5-phenyl-barbituric acid, 5-ethyl-5-phenylbarbituric acid, reference compound] | 2.5 |  |  | 180 mg/kg |  | 15 mg/kg | 38 mg/kg | 15 mg/kg |  | 
CCCNCC(=O)Nc1ccc(C2NC(=O)Cc3ccccc32)cc1 (centres unmarked) [Example 5, 1,4-Dihydro-1-(4'-/propylaminoacetyl/-amino-phenyl)-3(2H)-isoquinolinone] | 24 | 21 mg/kg | 490 mg/kg |  | 50 mg/kg |  |  |  | ~2000 mg/kg | 
CCCNCC(=O)Nc1ccc(C2NC(=O)C(C)(C)c3ccccc32)cc1 (centres unmarked) [Example 6, 1,4-Dihydro-4,4-dimethyl-1-(4'-/propylaminoacetyl/-amino-phenyl)3-(2H)-isoquinolinone] | 13.6 | 32 mg/kg | 435 mg/kg |  | 100 mg/kg |  |  |  | 1600 mg/kg | 
CCCNCC(=O)Nc1ccc(C2NC(=O)C(C)c3ccccc32)cc1 (centres unmarked) [Example 7, 1,4-Dihydro-4-methyl-1-(4'-/propylaminoacetyl/-aminophenyl)-3(2H)-isoquinolinone] | 15.4 | 22 mg/kg | 340 mg/kg |  | 50 mg/kg |  |  |  |  | > 1600 mg/kg
CCCNCC(=O)Nc1ccc(C2NC(=O)C(C(C)C)c3ccccc32)cc1 (centres unmarked) [Example 8, 1,4-Dihydro-4-isopropyl-1-(4'-/propylaminoacetyl/-amino-phenyl)-3(2H)-isoquinolinone] | ~2.5 | ~20 mg/kg | ~50 mg/kg |  | 50 mg/kg |  |  |  | 600 to 800 mg/kg | 
CCNCC(=O)Nc1ccc(C2NC(=O)Cc3ccccc32)cc1 (centres unmarked) [Example 9, 1,4-Dihydro-1-(4'-/ethylaminoacetyl/-amino-phenyl)-3(2H)-isoquinolinone] | 51 | 10.2 mg/kg | 520 mg/kg |  | 50 mg/kg |  |  |  |  | > 1600 mg/kg
CCNCC(=O)Nc1ccc(C2NC(=O)C(C)(C)c3ccccc32)cc1 (centres unmarked) [Example 10, 1,4-Dihydro-1-(4'-/ethylaminoacetyl/-amino-phenyl)-4,4-dimethyl-3(2H)-isoquinolinone] | ~2 | > 300 mg/kg | 760 mg/kg |  | 50 mg/kg |  |  |  |  | > 2000 mg/kg
CNCC(=O)Nc1ccc(C2NC(=O)Cc3ccccc32)cc1 (centres unmarked) [Example 11, 1,4-Dihdryo-1-(4'-/methylaminoacetyl/-amino-phenyl)-3(2H)-isoquinolinone] | ~12 | 22 mg/kg | 270 mg/kg |  | 50 mg/kg |  |  |  | ~600 mg/kg | 
CC(C)NCC(=O)Nc1ccc(C2NC(=O)Cc3ccccc32)cc1 (centres unmarked) [Example 12, 1,4-Dihydro-1-(4'-/isopropylaminoacetyl/-aminophenyl)-3(2H)-isoquinolinone] | 26 | 10.5 mg/kg | 270 mg/kg |  | 100 mg/kg |  |  |  |  | > 1000 mg/kg
CNCC(=O)Nc1ccc(C2NC(=O)C(C)(C)c3ccccc32)cc1 (centres unmarked) [Example 13, 1,4-Dihydro-4,4-dimethyl-1-(4'-/methylaminoacetyl/-amino-phenyl)-3(2H)-isoquinolinone maleate] | ~32 | 25 mg/kg | ~800 mg/kg |  |  |  |  |  |  | > 2000 mg/kg
CC(C)NCC(=O)Nc1ccc(C2NC(=O)C(C)(C)c3ccccc32)cc1 (centres unmarked) [Example 14, 1,4-Dihydro-4,4-dimethyl-1-(4'-/isopropylaminoacetyl/-amino-phenyl)-3(2H)-isoqinolinone] | ~59 | 27 mg/kg | ~1600 mg/kg |  |  |  |  |  |  | > 2000 mg/kg
CCCCNCC(=O)Nc1ccc(C2NC(=O)C(C)(C)c3ccccc32)cc1 (centres unmarked) [Example 15, 1,4-Dihydro-1-(4'-/butylaminoacetyl/-amino-phenyl)-4,4-dimethyl-3(2H)-isoquinolinone] | ~10 | 29 mg/kg | ~300 mg/kg |  |  |  |  |  | > 1000 mg/kg | 
CCN(CC)CC(=O)Nc1ccc(C2NC(=O)C(C)(C)c3ccccc32)cc1 (centres unmarked) [Example 16, 1,4-Dihydro-1-(4'-/N,N-diethylaminoacetyl/-amino-phenyl)-4,4-dimethyl-3(2H)-isoquinolinone] | ~15 | ~88 mg/kg | ~1300 mg/kg |  |  |  |  |  | ~1600 mg/kg | 
